Each compound was assayed on yeast lacking Yfh1p (assay: Yeast-based screening assay (WST-1 tetrazolium dye reduction)). Conditions: glycerol medium, 72 h, OD450, single dose 50 uM, activity threshold >1.32 fold increase in absorbance.
Type: cell-based
Description: The aim of this assay is to identify compounds that can improve mitochondrial function in yeast lacking Yfh1p grown in a non-fermentable growth medium. The yeast Yfh1p expression construct used in this study has a galactose-inducible, glucose-repressible promoter driving Yfh1p production. Yfh1p is expressed when yeast are grown in the presence of galactose and inhibited when they are grown in the presence of dextrose. Growing the cells in the presence of dextrose not only turns off the expression of Yfh1p, but also leads to the depletion of Yfh1p in the cells. Transferring the Yfh1p-depleted cells into a non-fermentable, glycerol-based medium dictates that the yeast must use an oxidative pathway. […] Cleavage of the tetrazolium salt to formazan is accompanied by an increase in absorbance at 450 nm.
Compounds in the single dose assay were evaluated on the basis of Fold Induction compared to yeast only, and those in the dose response assay on percent activation, i.e. percent induction of tetrazolium dye reduction in yeast grown in a non-fermentable growth medium. Percent activation was calculated using the optical density in control wells with cells treated with positive control compound (25 uM methyl 4-(1, 2, 4, 5-tetraazin-3-yl) phenyl ether (MLSMR External ID: MLS000550612; PubChem SID: 14718875)) as full induction of tetrazolium dye reduction (100% activation), and wells with cells grown in medium without methyl 4-(1, 2, 4, 5-tetraazin-3-yl) phenyl ether as an indicator of 0% activation. Library compounds were screened at 50 uM. From the 50 uM single dose assay, 1250 compounds with significant tetrazolium dye reduction were selected for confirmatory dose response assay. These compounds were screened in a 10-point dilution series ranging from 0.01 to 100 uM.
The following screening protocol was followed. Yeast cells containing an inducible/repressible promoter for Yfh1p expression were cultured in induction medium (Yfh1 on) with Galactose as the carbon source, and then shifted to repression medium (Yfh1 off) with Dextrose as the carbon source (for 24 hours) to allow Yfh1 protein to decay. The cells were then incubated for 24 h in respiration-only medium (Yfh1 off) with Glycerol as the carbon source to allow cells to equilibrate, and then plated in 384 well plates in respiration-only medium (Yfh1 off) with glycerol as carbon source, in the presence of Tetrazolium dye (WST-1) for 72 hours.
Preparation of Assay • 1. Cells were streaked out on a YPGal agar plate and grown inverted for 3 days at 30 C. • 2. A colony was selected and 10 mL of YPGal medium inoculated and grown over night at 30 C with shaking. • 3. The cells were counted on a coulter counter, centrifuged at 1400 g for 5 min in dextrose (CSMM-D) medium, washed twice to remove all galactose, and resuspended in CSMM-D medium at a cell density of 2 to the power of 5 cells/mL. • 4. Frozen stocks were prepared at this point, in dextrose medium. For these dextrose stock solutions, enough culture was grown in dextrose media over night with shaking at 30 C, to get a cell density of ˜2 to the power of 7 cells/mL. The cells were centrifuged at 1400 g for 5 min and the pellet resuspended in glycerol freezing medium at a cell density of 2 to the power of 8 cells/mL. • 5. The day before the screen, frozen culture was thawed at room temperature and resuspended in glycerol (CSMM-G) medium. • 6. The culture was grown over night at 30 C with shaking and the cells counted and diluted in CSMM-G medium for a final cell density of 4 to the power of 6 cells/mL. • 7. Methyl 4-(1, 2, 4, 5-tetraazin-3-yl) phenyl ether (positive control), CSMM-G medium alone (negative control) and compounds were plated with DMSO at 200× concentration (final concentrations: methyl 4-(1, 2, 4, 5-tetraazin-3-yl) phenyl ether 25 uM, compounds 50 uM, DMSO 0.5%) in 384-well plates: 125 nL/well. For the dose response assay, compounds were plated in a 10-point dilution series ranging from 0.01 to 100 uM, at 1% DMSO. • 8. […]

Row | Structure (SMILES) | active in the screen (tetrazolium dye reduction)
1 | CCCC(=O)NC(c1ccco1)c1cc([N+](=O)[O-])c2cccnc2c1O (stereo not shown) [N-[2-furyl(8-hydroxy-5-nitro-7-quinolinyl)methyl]butanamide] | active
2 | CCC(=O)NC(c1ccc(OC)c(OC)c1)c1cc(Cl)c2cccnc2c1O (stereo not shown) [N-[(5-chloro-8-hydroxyquinolin-7-yl)-(3,4-dimethoxyphenyl)methyl]propanamide] | active
3 | CCC(=O)NC(c1ccc(OC)cc1)c1cc(Cl)c2cccnc2c1O (stereo not shown) [N-[(5-chloro-8-hydroxyquinolin-7-yl)-(4-methoxyphenyl)methyl]propanamide] | active
4 | CCC(=O)NC(c1ccc(C)cc1)c1cc([N+](=O)[O-])c2cccnc2c1O (stereo not shown) [N-[(8-Hydroxy-5-nitro-quinolin-7-yl)-p-tolyl-methyl]-propionamide] | active
5 | CC(=O)NC(c1cccs1)c1cc([N+](=O)[O-])c2cccnc2c1O (stereo not shown) [N-[(8-hydroxy-5-nitro-quinolin-7-yl)-thiophen-2-yl-methyl]-acetamide] | active
6 | CCC(=O)NC(c1cccs1)c1cc([N+](=O)[O-])c2cccnc2c1O (stereo not shown) [N-[(8-hydroxy-5-nitro-quinolin-7-yl)-thiophen-2-yl-methyl]-propionamide] | active
7 | CCCC(=O)NC(c1cccs1)c1cc([N+](=O)[O-])c2cccnc2c1O (stereo not shown) [N-[(8-hydroxy-5-nitroquinolin-7-yl)-thiophen-2-ylmethyl]butanamide] | active

What follows are compounds tested on I154F FA cells (assay: I154F frataxin point-mutation model, rescue from FAC and/or BSO). Conditions: not given.
Type: cell-based, murine
From the text: 2. Preliminary testing in the I154F frataxin point-mutation model determines whether test compounds can rescue I154F FA cells from lethal concentrations of FAC and/or BSO. Among the mammalian-cell models that have, or recapitulate, the genetic defects underlying FA, by far the most robust (and best validated) is the I154F murine frataxin point-mutation model developed by Puccio and colleagues (Calmels, N. et al.), the first cellular model based on frataxin missense mutations that reproduces spontaneously the defects associated with Friedreich ataxia (PLoS One 4, e6379 (2009)). […] This model is also extremely stable, with phenotypes unchanged after months of continuous culture. In contrast, the mutations in available primary human FA fibroblasts are GAA repeat expansions in the first intron of the FXN gene; occasional cells in which these expansions contract have a growth advantage and take over the culture, diluting the phenotype and increasing variance in various measures of compound efficacy.
In another screen, testing was conducted in the I154F point-mutation model as described above, to determine whether test compounds could rescue I154F FA cells from lethal or sublethal concentrations of FAC and/or BSO. Effective in this screen were the following compounds: N-[(5-chloro-8-hydroxyquinolin-7-yl)-thiophen-2-ylmethyl]-3-phenylpropanamide, N-[(5-chloro-8-hydroxyquinolin-7-yl)-thiophen-2-ylmethyl]pentanamide, N-[(5-chloro-8-hydroxyquinolin-7-yl)-furan-2-ylmethyl]-3-phenylpropanamide, N-[(5-chloro-8-hydroxyquinolin-7-yl)-furan-2-ylmethyl]propanamide, N-[(5-chloro-8-hydroxyquinolin-7-yl)-furan-2-ylmethyl]pentanamide, N-[(5-chloro-8-hydroxyquinolin-7-yl)-tolyl]-3-phenylpropanamide, N-[(5-chloro-8-hydroxyquinolin-7-yl)-(3-methoxyphenyl)methyl]-3-phenylpropanamide, N-[(5-chloro-8-hydroxyquinolin-7-yl)-(4-dimethylaminophenyl)methyl]-3-phenylpropanamide, N-[(5-chloro-8-hydroxyquinolin-7-yl)-(4-chlorophenyl)methyl]-3-phenylpropanamide, N-[(5-chloro-8-hydroxyquinolin-7-yl)-(3-chlorophenyl)methyl]-3-phenylpropanamide, N-[(5-chloro-8-hydroxyquinolin-7-yl)-(2-chlorophenyl)methyl]-3-phenylpropanamide, N-[(5-chloro-8-hydroxyquinolin-7-yl)-(3,4-dimethoxyphenyl)methyl]-3-phenylpropanamide, N-[(5-chloro-8-hydroxyquinolin-7-yl)-(2,4-dimethoxyphenyl)methyl]-3-phenylpropanamide, N-[(5-chloro-8-hydroxyquinolin-7-yl)-(3,4,5-trimethoxyphenyl)methyl]-3-phenylpropanamide, N-[(5-chloro-8-hydroxyquinolin-7-yl)-(2-bromophenyl)methyl]-3-phenylpropanamide, N-[(5-chloro-8-hydroxyquinolin-7-yl)-p-tolyl-methyl]-3-phenylpropanamide, N-[(5-chloro-8-hydroxyquinolin-7-yl)-(2-hydroxyphenyl)methyl]-3-phenylpropanamide (1a-18), and N-[(5-chloro-8-hydroxyquinolin-7-yl)-(4-methoxyphenyl)methyl]-3-phenylpropanamide.

Row | Structure (SMILES) | rescue of I154F FA cells from lethal or sublethal concentrations of FAC and/or BSO
8 | COc1ccc(C(NC(=O)CCc2ccccc2)c2cc(Cl)c3cccnc3c2O)c(OC)c1 (stereo not shown) [N-[(5-chloro-8-hydroxyquinolin-7-yl)-(2,4-dimethoxyphenyl)methyl]-3-phenylpropanamide] | Effective
9 | O=C(CCc1ccccc1)NC(c1ccccc1Br)c1cc(Cl)c2cccnc2c1O (stereo not shown) [N-[(5-chloro-8-hydroxyquinolin-7-yl)-(2-bromophenyl)methyl]-3-phenylpropanamide] | Effective
10 | O=C(CCc1ccccc1)NC(c1ccccc1Cl)c1cc(Cl)c2cccnc2c1O (stereo not shown) [N-[(5-chloro-8-hydroxyquinolin-7-yl)-(2-chlorophenyl)methyl]-3-phenylpropanamide] | Effective
11 | O=C(CCc1ccccc1)NC(c1ccccc1O)c1cc(Cl)c2cccnc2c1O (stereo not shown) [N-[(5-chloro-8-hydroxyquinolin-7-yl)-(2-hydroxyphenyl)methyl]-3-phenylpropanamide] | Effective
12 | COc1cc(C(NC(=O)CCc2ccccc2)c2cc(Cl)c3cccnc3c2O)cc(OC)c1OC (stereo not shown) [N-[(5-chloro-8-hydroxyquinolin-7-yl)-(3,4,5-trimethoxyphenyl)methyl]-3-phenylpropanamide] | Effective
13 | COc1ccc(C(NC(=O)CCc2ccccc2)c2cc(Cl)c3cccnc3c2O)cc1OC (stereo not shown) [N-[(5-chloro-8-hydroxyquinolin-7-yl)-(3,4-dimethoxyphenyl)methyl]-3-phenylpropanamide] | Effective
14 | O=C(CCc1ccccc1)NC(c1cccc(Cl)c1)c1cc(Cl)c2cccnc2c1O (stereo not shown) [N-[(5-chloro-8-hydroxyquinolin-7-yl)-(3-chlorophenyl)methyl]-3-phenylpropanamide] | Effective
15 | COc1cccc(C(NC(=O)CCc2ccccc2)c2cc(Cl)c3cccnc3c2O)c1 (stereo not shown) [N-[(5-chloro-8-hydroxyquinolin-7-yl)-(3-methoxyphenyl)methyl]-3-phenylpropanamide] | Effective
16 | O=C(CCc1ccccc1)NC(c1ccc(Cl)cc1)c1cc(Cl)c2cccnc2c1O (stereo not shown) [N-[(5-chloro-8-hydroxyquinolin-7-yl)-(4-chlorophenyl)methyl]-3-phenylpropanamide] | Effective
17 | CN(C)c1ccc(C(NC(=O)CCc2ccccc2)c2cc(Cl)c3cccnc3c2O)cc1 (stereo not shown) [N-[(5-chloro-8-hydroxyquinolin-7-yl)-(4-dimethylaminophenyl)methyl]-3-phenylpropanamide] | Effective
18 | COc1ccc(C(NC(=O)CCc2ccccc2)c2cc(Cl)c3cccnc3c2O)cc1 (stereo not shown) [N-[(5-chloro-8-hydroxyquinolin-7-yl)-(4-methoxyphenyl)methyl]-3-phenylpropanamide] | Effective
19 | O=C(CCc1ccccc1)NC(c1ccco1)c1cc(Cl)c2cccnc2c1O (stereo not shown) [N-[(5-chloro-8-hydroxyquinolin-7-yl)-furan-2-ylmethyl]-3-phenylpropanamide] | Effective
20 | CCCCC(=O)NC(c1ccco1)c1cc(Cl)c2cccnc2c1O (stereo not shown) [N-[(5-chloro-8-hydroxyquinolin-7-yl)-furan-2-ylmethyl]pentanamide] | Effective
21 | CCC(=O)NC(c1ccco1)c1cc(Cl)c2cccnc2c1O (stereo not shown) [N-[(5-chloro-8-hydroxyquinolin-7-yl)-furan-2-ylmethyl]propanamide] | Effective
22 | Cc1ccc(C(NC(=O)CCc2ccccc2)c2cc(Cl)c3cccnc3c2O)cc1 (stereo not shown) [N-[(5-chloro-8-hydroxyquinolin-7-yl)-p-tolyl-methyl]-3-phenylpropanamide] | Effective
